These results are taken from PMC7672604, “Design, Synthesis, Molecular Docking, Antiapoptotic and Caspase-3 Inhibition of New 1,2,3-Triazole/Bis-2(1H)-Quinolinone Hybrids” (Molecules, 2020).

By melting point is commonly meant the temperature, or range, at which the solid turns liquid.

Where “and” joins values, the source holds several entries; their conditions need not be identical. Equal values may be shown once.

In data set [1] the test system is testis of I/R rats. As to the kind of experiment: Testicular MDA in testis of I/R rats. In kind it is in vivo. The conditions noted are these: i.p. 1 h before ischemia, dose equivalent to 30 mg NAC, mean ± S.E.M, n=6. The protocol:
(§1) This section describes the methods used in the investigation of the antiapoptotic effect of the novel compounds 6a–g then supported by further histological and molecular docking studies. The antiapoptotic effect of 6a–g was evaluated through evaluation of decreasing tissue damage induced by I/R in the testis of rats in a dose equivalent to 30 mg N-acetylcysteine (NAC) as an antiapoptotic reference. The rats were subdivided into sham, I/R, NAC and treated with tested compounds groups, each group comprises of 6 rats (weighing 140–150 g). The targeted compounds 6a–g were administrated intra-peritoneal (i.p.) an hour before ischemia, which lasted for (0.5 h) then reperfusion (1 h) followed by cutting the organ (Figure 5). Different biomarkers concentrations were measured in serum to detect testis injury due to ischemia/reperfusion (I/R).
(§2) During the long testicular torsion, oxidation damage affects the testis by the production of the reactive oxygen species (ROS). Excessive generation of the ROS interacts with lipids, proteins, and nucleic acids, which has an adverse effect on cell function and damage. The testis has high cell metabolism such that excessive ROS production weakens antioxidant capacity. Malondialdehyde (MDA) is the end product of lipid peroxidation and increased MDA level has an adverse effect on sperm fertility. Furthermore, total antioxidant capacity (TAC) is the measure of the number of free radicals scavenged by a test solution, being used to evaluate the antioxidant capacity of biological samples [55]. The data collected in Table S3 (Supplementary Materials) have identified that there was a significant increase in testicular MDA with a significant decrease in testicular TAC in the I/R group as well as compounds 6d and 6f when compared to sham control and NAC groups. These findings indicate that both 6d and 6f are the worst antiapoptotic compounds compound amongst all the synthesized compounds.
TAC was assessed by the colorimetric technique using commercial kits (El-Minia, Egypt) (See Supplementary Materials). Testicular MDA, an index of lipid peroxidation, was determined by using 1,1,3,3-tetramethoxypropane as standard (See Supplementary Materials).

The subject of data set [2] is testis of I/R rats. The data set is described as follows: Testicular TAC in testis of I/R rats. Type of data set: in vivo. As to conditions: i.p. 1 h before ischemia, dose equivalent to 30 mg NAC, mean ± S.E.M, n=6. On the procedure:
as §1, §2
TAC was assessed by the colorimetric technique using commercial kits (El-Minia, Egypt) (See Supplementary Materials). Testicular MDA, an index of lipid peroxidation, was determined by using 1,1,3,3-tetramethoxypropane as standard (See Supplementary Materials). […]
1.3.Determination of Total Antioxidant Capacity (Testicular tissue)
Free radicals or reactive oxygen species (ROS) are produced during biochemical redox reactions as part
of normal physiological cell metabolism (protection from infectious organisms) and as a response to
environmental factors such as UV light, cigarette smoke, environmental pollutants, and g-radiation. Once
formed, ROS attack cellular components causing damage to lipids, proteins, and DNA which can initiate
Antioxidants in the sample reduce dark blue-green colored ABTS radical to colorless reduced ABTS
form. The change of absorbance at 660 nm is related with total antioxidant level of the sample. The assay
is calibrated with a stable antioxidant standard solution which is traditionally named as Trolox
Equivalent that is a vitamin E analog.
The determination of the antioxidative capacity is performed by the reaction of antioxidants in the
sample with a defined amount of exogenously provide hydrogen peroxide (H2O2) The antioxidants in the
sample eliminate a certain amount of the provided hydrogen peroxide. The residual H2O2 is determined
(1 picture or pasted object on this page, not shown here)
colorimetrically by an enzymatic reaction which involves the conversion of 3,5,dichloro–2–hydroxy
benzensulphonate to a colored product.
* Dilute R11000 times immediately before use (10 μl R1 + 10 ml d. Water mix Discard after use.
*Working Reagent: mix equal volumes of R2 and R3 immediately before use.
*Dilute sample if necessary
Total Antioxidant concentration […]

The subject of the next data set is caspase-3. As to the kind of experiment: Caspase-3 level in serum of testicular I/R rats (ELISA). Type of data set: in vivo. The conditions noted are these: mean ± S.E.M, n=6. The protocol:
as §1
Caspases can delay apoptosis, implicating a potential role in drug screening efforts. Therefore, we studied the mechanism of the caspase-3 inhibition activity. Caspase-3 was assayed in the serum of rats treated with 6a–g in comparison with sham and the NAC treated group, as shown in Table S5 (Supplementary Materials).
(§3) TNF-α was measured by ELISA kit (Elabscience, Houston, TX, USA). Caspase-3 was measured by ELISA kit Cusabio, Houston, TX, USA (See Supplementary Materials). Testosterone concentration in testicular samples was determined by the ELISA kit (“DRG”, Marburg, Germany) (See Supplementary Materials).

Data set [3] relates to testis of I/R rats. As to the kind of experiment: TNFα in testis of I/R rats (ELISA). Type of data set: in vivo. The conditions noted are these: i.p. 1 h before ischemia, dose equivalent to 30 mg NAC, mean ± S.E.M, n=6. The protocol:
as §1
It was reported that excessive apoptosis in the testis could damage the Leydig cells and apparent decline in serum testosterone levels. Furthermore, excessive apoptosis of Leydig cells results in decreased testosterone. The assays of the apoptotic biomarkers (testicular testosterone and TNFα) were done in comparison with the sham and NAC treated group and the results were outlined in Table S4 (Supplementary Materials).
as §3

With `CC(=O)N[C@@H](CS)C(=O)O` [NAC, N-acetylcysteine, reference compound], the “Testicular MDA” value in the data set on testis of I/R rats [1] was 67.58 nmol/g tissue and 67.58±3.76 nmol/g tissue. Further, in the data set with testis of I/R rats [2], the “Testicular TAC” value is 4.45 mmol/g tissue and 4.45±0.40 mmol/g tissue. In the data set with caspase-3, the Caspase-3 level was determined as 2.54 ± 0.22 ng/mL. Moreover, the TNF-α in the data set on testis of I/R rats [3] was determined as 93.39 ± 4.59 pg/mL.
`COc1ccc2[nH]c(=O)cc(-n3cc(COc4cc(=O)[nH]c5ccccc45)nn3)c2c1` [6c, 6-Methoxy-4-(4-(((2-oxo-1,2-dihydroquinolin-4-yl)oxy)methyl)-1H-1,2,3-triazol-1-yl)-quinolin-2(1H)-one] came in with a melting point of 295 to 297 °C. Moreover, the “Testicular MDA” value in the data set with testis of I/R rats [1] was determined as 64.93±4.50 nmol/g tissue. For the same compound, the “Testicular TAC” value with testis of I/R rats [2] was 4.78±0.39 mmol/g tissue. This compound also had a Caspase-3 level in the data set on caspase-3 of 2.39 ± 0.23 ng/mL. In addition, the TNF-α with testis of I/R rats [3] is 106.70 ± 4.75 pg/mL.
The compound `Cn1c(=O)cc(-n2cc(COc3cc(=O)[nH]c4ccccc34)nn2)c2ccccc21` [6d, 1-Methyl-4-(4-(((2-oxo-1,2-dihydroquinolin-4-yl)oxy)methyl)-1H-1,2,3-triazol-1-yl)quinolin-2(1H)-one] registered a melting point of 285 to 287 °C. Also, the “Testicular MDA” value with testis of I/R rats [1] is on record as 117.50 ± 3.71 nmol/g tissue. In addition, the “Testicular TAC” value with testis of I/R rats [2] was 1.89±0.29 mmol/g tissue. In the data set on caspase-3, this compound gave a Caspase-3 level of 15.28 ± 1.51 ng/mL. Moreover, the TNF-α in the data set with testis of I/R rats [3] amounted to 234.50 ± 6.15 pg/mL.
The like results for `Cc1ccc2[nH]c(=O)cc(OCc3cn(-c4cc(=O)[nH]c5ccc(C)cc45)nn3)c2c1` [6f, 6-Methyl-4-((1-(6-methyl-2-oxo-1,2-dihydroquinolin-4-yl)-1H-1,2,3-triazol-4-yl)meth-oxy)quinolin-2(1H)-one] were, in that order, 270 to 272 °C, 117.00±3.46 nmol/g tissue, 1.73±0.25 mmol/g tissue, 16.34 ± 1.49 ng/mL and 237.90 ± 4.52 pg/mL.
For the compound `COc1ccc2[nH]c(=O)cc(OCc3cn(-c4cc(=O)[nH]c5ccccc45)nn3)c2c1` [6g, 6-Methoxy-4-((1-(2-oxo-1,2-dihydroquinolin-4-yl)-1H-1,2,3-triazol-4-yl)methoxy)quinolin-2-(1H)-one], the melting point fell in the range of 300 to 302 °C. The “Testicular MDA” value in the data set on testis of I/R rats [1] turned out to be 89.59±5.58 nmol/g tissue. The “Testicular TAC” value in the data set on testis of I/R rats [2] was 3.34±0.21 mmol/g tissue. In the data set with caspase-3, this compound displayed a Caspase-3 level of 6.99 ± 0.24 ng/mL. Also, the TNF-α with testis of I/R rats [3] stood at 192.00 ± 6.31 pg/mL.
`Cc1ccc2[nH]c(=O)cc(OCc3cn(-c4cc(=O)[nH]c5ccccc45)nn3)c2c1` [6e, 6-Methyl-4-((1-(2-oxo-1,2-dihydroquinolin-4-yl)-1H-1,2,3-triazol-4-yl)methoxy)quinolin-2(1H)-one] showed a melting point of 272 to 274 °C. Also, in the data set with testis of I/R rats [1], the “Testicular MDA” value is on record as 85.00±6.46 nmol/g tissue. Also, the “Testicular TAC” value with testis of I/R rats [2] was 3.34±0.25 mmol/g tissue. This compound also returned a Caspase-3 level with caspase-3 of 7.86 ± 0.28 ng/mL. Further, the TNF-α with testis of I/R rats [3] was found to be 188.90 ± 6.82 pg/mL.
